# From PubChem BioAssay AID1996
# Details: buffer; pH 7.4; 200.0 µM
row,Structure (SMILES),solubility kinetic
1,CCC(=O)N(Cc1cc(=O)[nH]c2ccccc12)c1ccc(OC)cc1,47.1 µg/mL
2,Cc1cc(C)nc(NS(=O)(=O)c2ccc(CC(C)C)cc2)c1,28.9 µg/mL
3,NC(=O)CN1C(=O)C(=O)N(Cc2cccc(Cl)c2)C1=O,> 44.4 µg/mL
4,Cc1ccsc1C(=O)N1CCN(C(=O)c2ccco2)CC1,> 45.7 µg/mL
5,Cn1c(C(=O)N2CCN(c3ccccn3)CC2)cc2ccccc21,43.8 µg/mL
6,O=C(c1ccc(Br)cc1)N(c1ccccn1)C1CCCCC1,16.5 µg/mL
7,COc1ccccc1C1CC(=O)NC(C)=C1C(=O)OC(C)C (stereo not given),28.4 µg/mL
8,CN1CCN(S(=O)(=O)c2cccc(C(=O)Nc3cccc([N+](=O)[O-])c3)c2)CC1,59.7 µg/mL
9,CC1(C)CC(=O)C=C(Nc2cccc(C(F)(F)F)c2)C1,24 µg/mL
10,Cl.O=C(CCN1CCOCC1)NCc1ccccc1,> 42.7 µg/mL
11,C=CCn1c(O)c(C(C)=Nc2cccc(C(=O)O)c2)c(=O)[nH]c1=O,> 49.4 µg/mL
12,CN1CCN(NS(=O)(=O)c2ccc(Cl)cc2)CC1,> 43.5 µg/mL
13,CN(C)CCn1c(COc2ccccc2)nc2ccccc21.Cl.O,> 60.7 µg/mL
14,CCCCc1nnc(SCC(=O)Nc2nccs2)n1CC,> 48.8 µg/mL
15,NC(=O)c1ccsc1NC(=O)CSc1nnc2ccccn12,> 50 µg/mL
16,Cc1ccc(NC(=O)CCN2CCC(C(N)=O)CC2)cc1,> 43.4 µg/mL
17,Oc1ccc2ccccc2c1CNc1ccc(Br)cn1,1.9 µg/mL
18,O=[N+]([O-])c1ccc(OCC2CC(c3ccccc3)=NO2)cc1 (stereo not given),< 0.3 µg/mL
19,CSc1ccc(NC(N)=S)cc1,> 29.7 µg/mL
20,Cn1ncc2c(=O)[nH]cnc21,> 22.5 µg/mL
21,CS(=O)(=O)c1ccccc1C(=O)NC1CCCc2ccccc21 (stereo not given),> 49.4 µg/mL
22,Cc1cnc(C(=O)Nc2cc(F)ccc2C)cn1,15.6 µg/mL
23,Cc1cc(C)c2cc(C(=O)N3CCC(N4CCCCC4)CC3)[nH]c2c1,> 50.9 µg/mL
24,CC(C)c1ccccc1NC(=S)N(C)C,> 33.4 µg/mL

row,Structure (SMILES),solubility kinetic
1,O=C(O)CNC(=S)N(Cc1ccccc1F)C1CCCCC1,> 48.7 µg/mL
2,CC1CCN(CCC(=O)Nc2nccs2)CC1,33.7 µg/mL
3,CC(C)[C@H](NS(=O)(=O)c1ccccc1)C(=O)Nc1ccccc1N1CCOCC1,52.1 µg/mL
4,Cc1cccc(C)c1NC(=O)C(C)N1CCCC1 (stereo not given),> 37 µg/mL
5,COc1cccc(NC(=S)N(CCN(C)C)Cc2cccs2)c1,41.6 µg/mL
6,CCN1CCN(c2cc(=O)n3ccccc3n2)CC1,32 µg/mL
7,COc1ccc2nc(NC(=O)c3ccccc3C(=O)O)sc2c1,> 49.3 µg/mL
8,CC(NC(=O)CN1C(=O)NC2(CCCCCCC2)C1=O)c1ccccc1 (stereo not given),> 53.6 µg/mL
9,CCOC(=O)CN1C(=O)CC(c2ccc([N+](=O)[O-])cc2)C1=O (stereo not given),> 45.9 µg/mL
10,CC(=NCC1CCCO1)c1c(O)n(C2CCCCC2)c(=O)[nH]c1=O (stereo not given),> 50.3 µg/mL
11,Cc1sc2ncnc(N3CCC(C(=O)Nc4ccc(OC(F)F)c(Cl)c4)CC3)c2c1C,5.7 µg/mL
12,CCN(CC(=O)NCc1ccc(F)cc1)C(=O)/C=C/c1ccco1,> 49.6 µg/mL
13,COc1cccc(CN2CCN(Cc3ccc(O)cc3)CC2CCO)c1 (stereo not given),49.2 µg/mL
14,COc1ccc(C(=O)C23CN4CN(CN(C4)C2)C3)cc1,> 41 µg/mL
15,CC(C)(C)c1ccc(S(=O)(=O)NCC2CCCO2)cc1 (stereo not given),34.9 µg/mL
16,CC(=O)Nc1ccc(NC(=O)COC(=O)Cn2cnc3ccccc32)cc1,> 55 µg/mL
17,O=C(Nc1ccc2c(c1)C(=O)OC2)c1ccc(C(F)(F)F)cc1,< 0.7 µg/mL
18,Cc1ccc(N2C(=O)CC(Sc3ncccn3)C2=O)cc1C (stereo not given),27.7 µg/mL
19,C(=C\c1ccccc1)/CSc1nc2ncccc2[nH]1,8.9 µg/mL
20,CCCN1CCN(CCCNC(=S)Nc2ccc(F)cc2)CC1,49 µg/mL
21,CS(=O)(=O)CC(=O)Nc1ccc2nc3n(c(=O)c2c1)CCCCC3,43.2 µg/mL
22,COC(=O)c1ccccc1N=Cc1c(O)[nH]c(=S)[nH]c1=O,6.1 µg/mL
23,CC1CN(C(=O)Nc2ccc(F)cc2F)CC(C)O1 (stereo not given),> 40.5 µg/mL
24,O=C(Nc1ccc2nccnc2c1)c1ccco1,> 35.9 µg/mL

row,Structure (SMILES),solubility kinetic
1,O=C(NC(c1ccccc1)c1ccccc1)c1ccc(CO)cc1,44.2 µg/mL
2,COc1ccc(NC(=O)c2cc(-c3ccco3)on2)cc1OC,1.6 µg/mL
3,CCOCCCNC(=O)c1c[nH]c2c(CC)cccc2c1=O,> 45.4 µg/mL
4,Cc1ccc(C(=O)/C=C/c2cc(C#N)n(C)c2C)cc1,1.2 µg/mL
5,NC(=O)COc1ccccc1,21 µg/mL
6,CCNC(=S)Nc1ccc(Cc2nc3ccccc3[nH]2)cc1,36 µg/mL
7,CN1CCN(C(=O)CC2(CC(=O)O)CCCC2)CC1.Cl,> 45.7 µg/mL
8,COc1ccc(N(CC(=O)NCCSc2ccccc2)S(=O)(=O)c2ccccc2)c(OC)c1,3.6 µg/mL
9,O=C(O)CC(NC(=O)C12CC3CC(CC(C3)C1)C2)c1cccc([N+](=O)[O-])c1 (stereo not given),> 55.9 µg/mL
10,CCCCN(C(=O)COC(=O)c1ccc(C)s1)c1c(N)n(CCC)c(=O)[nH]c1=O,17.9 µg/mL
11,Cc1ccc(S(=O)(=O)N2CCC[C@H]2C(=O)Nc2ccccc2Cl)cc1,17.4 µg/mL
12,CSc1ncccc1C(=O)OCC(=O)c1ccc(C)s1,3.5 µg/mL
13,COc1ccc2ccccc2c1CNC(C)c1ccccc1.O=C(O)C(=O)O (stereo not given),> 57.2 µg/mL
14,CN1CCN(S(=O)(=O)c2ccccc2)CC1,34.6 µg/mL
15,O=[N+]([O-])c1cc(-c2cnc3ccccc3n2)ccc1Cl,< 0.2 µg/mL
16,Cc1ccc(NC(=O)CCN2C(=O)c3ccccc3C2=O)cc1,8.9 µg/mL
17,CCOc1ccccc1C(=O)Nc1ccc2c(c1)C(=O)NC2=O,< 0.3 µg/mL
18,Cc1ccc(NC(=O)CSc2nc(C)c(C)c(C)n2)cc1S(=O)(=O)N1CCOCC1,4.2 µg/mL
19,CCN(Cc1nc2ccccc2n1C)c1ccccc1,30.7 µg/mL
20,CSc1ccccc1NC(=O)Nc1ccccc1Cl,1.7 µg/mL
21,O=S(=O)(Nc1ncccn1)c1cc(Cl)ccc1Cl,> 45.6 µg/mL
22,COC(=O)NC1c2ccccc2Oc2ccccc21,0.7 µg/mL
23,O=C(COC(=O)c1ccccc1O)NC(c1ccccc1)c1ccccc1,5.9 µg/mL
24,CC(C)NCc1nnc(-c2ccc(Cl)cc2)o1,> 37.8 µg/mL

row,Structure (SMILES),solubility kinetic
1,Cc1ccc(/C(O)=C2\C(=O)C(=O)N(C)C2c2ccc([N+](=O)[O-])cc2)cc1 (stereo not given),> 52.9 µg/mL
2,CNc1nc(NCc2ccccc2)c2ccccc2n1.Cl,37 µg/mL
3,O=C(COC(=O)/C=C/c1ccc(F)cc1)NC1CCCCCC1,3.7 µg/mL
4,O=c1[nH]cc(N(CCO)CCO)c(=O)[nH]1,> 32.3 µg/mL
5,Cc1ccc(N=C(N)N=C(N)N)cc1,> 28.7 µg/mL
6,Cc1ccc(Cn2cc(C=O)c3ccccc32)cc1,11.7 µg/mL
7,O=C(Cc1ccccc1)OCC(=O)c1cccc([N+](=O)[O-])c1,> 44.9 µg/mL
8,O=C(Cc1ccccc1F)OCN1C(=O)c2ccccc2C1=O,47 µg/mL
9,CC(=O)NS(=O)(=O)c1ccc(NC(=S)NC(=O)C2CCC2)cc1,> 53.3 µg/mL
10,CNC(=S)N(Cc1ccccc1)Cc1cccnc1,39 µg/mL
11,CC(NC(=O)COC(=O)c1cc(=O)c2ccccc2o1)c1ccccc1 (stereo not given),> 52.7 µg/mL
12,CSc1ccccc1C(=O)NCc1ccccc1C,> 40.7 µg/mL
13,COCCCn1c(SCC(=O)c2ccccc2)nc2ccccc2c1=O,1.1 µg/mL
14,CC(NCc1ccccc1C(F)(F)F)C(O)c1ccccc1.Cl (stereo not given),> 51.9 µg/mL
15,NC(=O)COC(=O)c1ccc2noc(-c3ccccc3)c2c1,26.1 µg/mL
16,CCc1ccc2[nH]c(C(=O)Nc3ccc(C)c(F)c3)cc2c1,0.9 µg/mL
17,CC1CCCCC12NC(=O)N(Cc1cc(=O)n3ccsc3n1)C2=O (stereo not given),> 52 µg/mL
18,Cc1onc(-c2c(F)cccc2Cl)c1C(=O)N(C)C1CCCCC1,> 52.6 µg/mL
19,CC(=O)c1cccc(NC(=O)c2sc(Cl)nc2C)c1,> 44.2 µg/mL
20,Cc1ccc(NC(=O)N2CCC(C(=O)c3ccc(F)cc3)CC2)cc1,0.6 µg/mL
21,CCNC(=O)c1ccccc1-c1nc(-c2ccccc2)no1,35.4 µg/mL
22,COc1ccc(NS(=O)(=O)c2cccc3ccccc23)cc1,22.4 µg/mL
23,CCOC(=O)CSc1nc2c(c(=O)[nH]1)C(C)(CC)Cc1ccccc1-2 (stereo not given),1.5 µg/mL
24,O=C(CCc1nnc(C2CCCCC2)o1)NCc1ccc(F)c(F)c1,> 52.4 µg/mL

row,Structure (SMILES),solubility kinetic
1,Cc1ccc(SCCC(=O)OC(C(=O)NC(N)=O)C(C)C)cc1 (stereo not given),7 µg/mL
2,CCCS(=O)(=O)N1CCCC(C(=O)Oc2ccc(OC)cc2)C1 (stereo not given),40.5 µg/mL
3,COc1ccc(OC)c(NC(=O)COC(=O)C2CCCCC2)c1,2.9 µg/mL
4,Cc1nc(NC(=O)c2ccccc2O)sc1C,10.2 µg/mL
5,C[N+]1(C)CCCC(OC(=O)C(O)(c2ccccc2)c2ccccc2)C1.[Br-] (stereo not given),> 63.1 µg/mL
6,O=C(Nc1cccc(F)c1)N1CCCCCC1,> 35.4 µg/mL
7,O=S(=O)(c1ccc(S(=O)(=O)N2CCCC2)cc1)N1CCCCC1,< 0.4 µg/mL
8,COc1ccccc1OCCC(=O)OCC(=O)NCc1ccc(Cl)cc1,3.4 µg/mL
9,CCOc1ccccc1C(=O)Nc1cc(C)ccc1NC(=O)c1ccco1,43.4 µg/mL
10,COc1ccccc1CNC(=O)COc1ccccc1C,38.4 µg/mL
11,Cc1ccc(OCCn2cc(/C=C/C(=O)O)c3ccccc32)cc1,> 48.2 µg/mL
12,COc1ccc(/C=C/C(=O)O)cc1S(=O)(=O)N1CCC(C)CC1,> 50.9 µg/mL
13,Cc1cc(Cl)c2cc3ccccc3cc2n1,0.9 µg/mL
14,Cn1cccc1C(=O)OCC(=O)c1ccc(Br)s1,7.9 µg/mL
15,O=C1CC2(CCCC2)CC(=O)N1c1ccccc1,> 36.5 µg/mL
16,COc1cc2ccccc2cc1C(=O)N1CCN(C(C)=O)CC1,46.6 µg/mL
17,CC(=O)C1C(c2ccc(C)cc2)c2c(noc2C)CC1(C)O (stereo not given),42.2 µg/mL
18,O=C(CN1C(=O)COc2ccccc21)NCCN1CCCC1,> 45.5 µg/mL
19,O=C(NCc1cccnc1)Nc1cccc(Cl)c1Cl,27.7 µg/mL
20,Cc1ccc(CC(=O)NCCc2ccc(S(N)(=O)=O)cc2)cc1,> 49.9 µg/mL
21,NC(=O)CSc1nccn1Cc1ccc(Cl)cc1,> 42.3 µg/mL
22,Cn1cc(C(=O)NC2CC2)c2ccccc21,31.9 µg/mL
23,CC(C)Sc1cc(Cl)nc(NC(=O)Nc2ccccc2)n1,0.4 µg/mL
24,CC1CCN(CC(O)COc2ccc(C(=O)c3ccccc3)cc2)CC1 (stereo not given),> 53 µg/mL
